The values below come from US6423729B1, “Therapeutic or prophylactic agent for glomerulopathy” (Shionogi & Co., Ltd., priority 1997, dated 2002).

The target of data set [1] is T1, MMP-9 (Homo sapiens, UniProt P14780).
T1 construct: made in house; host or cells: HT1080 human fibrosarcoma cells; endogenous protein secreted after TPA treatment and purified from conditioned medium
Nature of the data set: Assay for inhibitory activity against MMP-9. The data set is classed as biochemical. As to the method: (§1) Assay for Inhibitory Activities of MMP-9 and MMP-2
(§2) The enzymatic activity was analyzed on the method described by Knight, C. G., et al. (C. Graham Knight., Frances Willenbrock and Gillian Murphy: A novel coumarin-labelled peptide for sensitive continuous assays of the matrix metalloproteinases. FEBS Lett., 296 (1992) 263-266).
MMP-9 was purified by using a combination of procedures described in previous reports as follows. Yasunori Okada, Yukio Gonoji, Katsumi Naka, Katsuro Tomita, Isao Nakanishi, Kazushi Iwata and Taro Hayakawa: Matrix metalloproteinase 9 (92-kDa gelatinase/type IV collagenase) from HT1080 human fibrosarcoma cells. Purification and activation of the precursor and enzymic properties. J. Biol. Chem., 267 (1992) 21712-21719. Yasunori Okada, Tatsuhisa Morodomi, Jan J, Enghild, Ko Suzuki, Atsushi Yasui, Isao Nakanishi, Guy Salvesen and Hideaki Nagase: Matrix metalloproteinase 2 from human rheumatoid synovial fibroblasts. Purification and activation of the precursor and enzymic properties. Eur. J. Biochem. 194 (1990) 721-730. Robin V Ward, Rosalind M Hembry, John J Reynolds and Gillian Murphy: The purification of tissue inhibitor of metalloproteinase-2 from its 72 kDa progelatinase complex. Biochem. J. 278 (1991) 179-187.
Briefly, human fibrosarcoma ATCC HT1080 cell line was cultured to confluent in Dulbecco's Modified Medium (DMEM) containing 10% fetal-calf serum at 37° C. for 48 hours. Subsequently, the medium of confluent culture was changed to serum-free DMEM medium. To obtain MMP-9, Phorbol-12-myristate-13-acetate (TPA) must be added to this serum-free DMEM medium at a concentration of 50 ng/ml. The TPA treated medium was centrifuged at 3000 rpm for 15 min and the supernatant was concentrated to 450 ml by a Toyo-Roshi UP-20 apparatus with an ultrafiltration membrane. Then, proMMP-9 in this concentrated solution was purified by using columns of Gelatin-Sepharose and Concanavalin A-Sepharose. The pool containing proMMP-9 was dialyzed, concentrated (Toyo-Roshi UP-20) and applied to columns of Sephacryl S-200 and Green A matrix for the separation from TIMPs. The obtained proMMP-9 fraction was activated by TPCK-Trypsin (final conc. […] reaction mix.) for the assay.
(§3) MOCAc-Pro-Leu-Gly-Leu-A2pr(Dnp)-Ala-Arg-NH2 as a substrate was purchased from Petide Institute(Osaka pref., Japan). This substrate was dissolved in DMSO at a concentration of 1 mM.
(§4) Reaction buffer consists of 50 mM Tris-HCl buffer (pH 7.5) containing 10 mM CaCl2, 0.3 M NaCl, 0.005% Brij35 and 0.01% NaN3.
Assay Method of Inhibitory Activity Against MMP-9:
1.0 μl of a tested compound in DMSO is added to 48.0 μl of a reaction buffer containing 0.08 μl of an enzyme solution. After standing for 60 minutes at room temperature, the reaction was started by adding 1.0 μl of a substrate solution. After incubation for 60 minutes at room temperature, 100 μl of 3% (v/v) AcOH for reaction stopping and measured a fluorescence with excitation and emission at 320 nm and 405 nm, respectively (Spectrophotofluorometer; Fluoroscan Ascent (Labsystem)).
(§5) The measurement of the inhibitory activities (IC50) was carried out in a following four methods;
(§6) A) Reaction with substrate, enzyme and inhibitor
(§7) B) Reaction with substrate and inhibitor, without enzyme
(§8) C) Reaction with substrate and enzyme, without inhibitor
(§9) D) Reaction with substrate only
(§10) IC50 values were calculated by using a following formula and each fluorescence values of above four methods (A to D).
(§11) % inhibition={1−(A−B)/(C−D)}×100
(§12) IC50 means the concentration required to inhibit 50% of the enzyme activity.

The target of data set [2] is T2, MMP-2 (Homo sapiens, UniProt P08253).
T2 construct: purchased Yagai (Yamagata pref., Japan)
T2 sequence (P08253 110-660): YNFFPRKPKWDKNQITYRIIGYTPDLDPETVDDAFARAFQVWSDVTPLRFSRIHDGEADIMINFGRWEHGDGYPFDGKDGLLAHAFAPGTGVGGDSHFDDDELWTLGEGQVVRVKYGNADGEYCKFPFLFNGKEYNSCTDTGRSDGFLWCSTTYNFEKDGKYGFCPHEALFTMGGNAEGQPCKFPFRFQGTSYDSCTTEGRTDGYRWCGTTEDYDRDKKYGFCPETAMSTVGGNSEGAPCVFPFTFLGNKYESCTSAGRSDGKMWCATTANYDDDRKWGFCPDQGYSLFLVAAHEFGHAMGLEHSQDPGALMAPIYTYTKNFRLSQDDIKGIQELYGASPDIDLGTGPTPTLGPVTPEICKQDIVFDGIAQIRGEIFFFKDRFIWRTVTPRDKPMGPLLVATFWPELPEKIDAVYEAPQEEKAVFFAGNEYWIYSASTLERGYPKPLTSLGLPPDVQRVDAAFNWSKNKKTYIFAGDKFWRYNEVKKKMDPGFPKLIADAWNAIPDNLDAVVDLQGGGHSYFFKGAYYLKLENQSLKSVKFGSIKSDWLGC
Nature of the data set: Assay for inhibitory activity against MMP-2. In kind it is biochemical. As to the method: as §1, §2
MMP-2 was purchased from Yagai (Yamagata pref., Japan).
as §3, §4
Assay Method of Inhibitory Activity Against MMP-2:
1.0 μl of a tested compound in DMSO is added to 48.0 μl of a reaction buffer containing 0.05 μl of an enzyme solution. After standing for 60 minutes at room temperature, the reaction was started by adding 1.0 μl of a substrate solution. After incubation for 60 minutes at room temperature, 100 μl of 3% (v/v) AcOH for reaction stopping and measured a fluorescence with excitation and emission at 320 nm and 405 nm, respectively (Spectrophotofluorometer; Fluoroscan Ascent (Labsystem)).
as §5, §6, §7, §8, §9, §10, §11, §12

In data set [3] the test system is E30 monoclonal antibody-induced glomerulonephritis in Slc-Wistar rats. Nature of the data set: Urinary protein excretion in E30 monoclonal antibody-induced glomerulonephritis rats. In kind it is in vivo, rat. The note with it: urinary protein excretion on day 2 after E30 injection, compound-treated vs vehicle-treated group, oral, 100 mg once a day, first dose 2 hours before E30. As to the method:
Five to eight weeks old male Slc-Wistar rats were used in the experiment.
In order to induce glomerulonephritis, E30 of 20 to 500 μg, preferably 50 to 200 μg, is intravenously injected to rats of five to eight weeks old. Test compounds of 0.1 to 500 mg, preferably 1 to 200 mg, are suspended with 3 to 10%, preferably 4 to 6%, gum arabic solution and the like, and are orally given 1 to 5 hours, preferably 1.5 to 3 hours, prior to E30 injection. Constant amount of test compounds are then consecutively given 1 to 3 times a day. Evaluation of test compounds are determined by the amount of urinary protein excretion 2 days after E30 injection when proteinuria reaches to the maximum level.
Determination of the amount of urinary protein excretion is performed by the collection of 24-hour urine samples with stainless metabolic cages followed by the measurement of the concentration of urinary protein. Blood samples obtained at the follow-up period are processed for the determination of blood urea nitrogen and plasma creatinine, which indicate renal function. As a marker of damaged renal tubules, urinary amounts of N-acetyl-D-glycosaminidase excretion is measured. Furthermore, to study the inhibitory effects of compounds on mesangial proliferation following E30 injection, the number of PCNA (proliferating cell nuclear antigen) positive cells per single glomerulus is counted. Morphological changes are observed with light and electron microscopy.
5-week-old male Slc-Wistar rats were reared under the conditions of room temperature of 25° C., 40-60% humidity and 12 hour cycles of light and darkness and fed on solid chow (CA-1, Clea Japan) and tap water ad libitum. After one week's preliminary rearing, each rat was housed in a stainless metabolic cage for acclimation for one week, and was used for experiment at 7 weeks of old (body weight: 150-180 g). E30 monoclonal antibody (J.J.N., vol. 36, p106, 1994) was diluted with saline at 100 μg/0.4 ml and was administered from tail vein at the volume of 0.4 ml/body. Compound (2) was suspended with 5% gum arabic solution and was given at the dose of 100 mg 2 hours before E30 injection. Subsequently, compound (2) of 100 mg was orally administered once a day from the next day. The rats were housed in stainless metabolic cages just after the administration of test compound, and then 24-hour urine samples were collected. After measuring the volume, the urine was centrifuged at 3000 rpm for 10 min at room temperature. […] Urinary protein was determined by pyrogallole red method (Micro TP-test Wako, Wako Zyunyaku). The amount of urinary protein excretion on day 2 in compound-treated group was compared with that in vehicle-treated one, and inhibitory ratio of urinary protein excretion was calculated. […]

SMILES strings stand for the structures.

T1 sequence (P14780 107-707 limits assumed): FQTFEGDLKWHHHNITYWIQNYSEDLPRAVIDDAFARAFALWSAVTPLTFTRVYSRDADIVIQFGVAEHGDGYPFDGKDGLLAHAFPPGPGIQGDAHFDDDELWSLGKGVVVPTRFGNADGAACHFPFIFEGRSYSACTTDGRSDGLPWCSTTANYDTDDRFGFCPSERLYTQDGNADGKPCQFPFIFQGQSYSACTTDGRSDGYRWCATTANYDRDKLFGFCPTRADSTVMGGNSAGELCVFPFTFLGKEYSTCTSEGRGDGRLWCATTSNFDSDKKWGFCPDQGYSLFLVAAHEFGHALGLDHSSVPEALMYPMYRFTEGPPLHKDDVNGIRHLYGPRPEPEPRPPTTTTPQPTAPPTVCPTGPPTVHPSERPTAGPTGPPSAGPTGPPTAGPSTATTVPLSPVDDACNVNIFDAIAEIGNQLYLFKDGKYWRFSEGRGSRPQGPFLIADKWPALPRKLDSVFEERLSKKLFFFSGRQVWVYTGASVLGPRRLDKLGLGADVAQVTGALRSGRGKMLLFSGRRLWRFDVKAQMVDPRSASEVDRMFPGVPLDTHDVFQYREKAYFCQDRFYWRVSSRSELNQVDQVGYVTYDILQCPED

`Cc1ccc(-n2nnc(-c3ccc(S(=O)(=O)N[C@H](Cc4ccccc4)C(=O)O)s3)n2)cc1` [Compound 95] registered a melting point of 166 to 169 °C. In data set [1], the IC50 was determined as 19 nM. In addition, the IC50 in data set [2] came to 10.7 nM. Further, in data set [3], the “Inhibitory rate (%) of urinary protein excretion” value is 21%.
In the same order, the values of `CC(C)[C@@H](NS(=O)(=O)c1ccc(-n2nnc(-c3ccc(C(F)(F)F)cc3)n2)cc1)C(=O)O` [Compound 104] are 198 to 200 °C, 18.7 nM, 2.02 nM and 27%.
In the same order, the values of `CCc1ccc(-c2nnn(-c3ccc(S(=O)(=O)N[C@H](Cc4ccccc4)C(=O)O)cc3)n2)cc1` [Compound 108] are 187 to 189 °C, 31.2 nM, 9.92 nM and 35%.
`C[C@@H](NS(=O)(=O)c1ccc(-n2nnc(-c3ccc(F)cc3)n2)cc1)C(=O)O` [Compound 114] displayed a melting point of 194 to 195 °C. Also, the IC50 in data set [1] stood at 316 nM. The IC50 in data set [2] is 27.8 nM. In data set [3], the “Inhibitory rate (%) of urinary protein excretion” value is reported as 2.7%.

The term melting point denotes the temperature, or range, at which the solid turns liquid. One may read the IC50 as the point on the concentration scale where inhibition reaches its midpoint.
